Assays:
human TRPA1 ion channel = target: T1, human TRPA1 ion channel (Homo sapiens, UniProt O75762); test: Assay A: TRPA1 assay (FLIPRtetra, AITC-induced intracellular calcium); assay type: cell-based; conditions: HEK293 cell line over-expressing human TRPA1, AITC agonism (final 10 μM), AUC of calcium signal, read-out: hTRPA1 IC50
T1 construct: host or cells: HEK293
Procedure: A human HEK293 cell line over-expressing the human TRPA1 ion channel (Perkin Elmer, Product No. AX-004-PCL) is used as a test system for compound efficacy and potency. Compound activity is determined by measuring the effect of compounds on intracellular calcium concentration induced by AITC (Allylisothiocyanat) agonism in a FLIPRtetra system (Molecular Devices).
The cells are obtained as frozen cells in cryo-vials and stored until use at −150° C.
Cells are grown in culture medium (MEM/EBSS medium with 10% FCS and 0.4 mg/ML Geneticin). […] For sub-culturing cells are detached from flasks by Versene. At the day before the assay, cells are detached, washed twice with medium (MEM/EBSS medium with 10% FCS) and 20000 cells in 20 μl/well are seeded to Poly D-Lysin biocoated 384-well plates (black, clear bottom, Cat. 356697) from Corning. Plates are incubated for 24 hours at 37° C./5% C02 before use in the assay.
The test compounds are dissolved in 100% DMSO at a concentration of 10 mM and in a first step diluted in DMSO to a concentration of 5 mM, followed by serial dilution steps in 100% DMSO. Dilution factor and number of dilution steps may vary according to needs. Typically 8 different concentrations by 1:5 dilutions are prepared, further intermediate dilutions (1:20) of the substances are carried out with HBSS/HEPES buffer (1×HEPES, Cat. 14065 from Gibco, 20 mM HEPES, Cat. 83264 from SIGMA, 0.1% BSA Cat. 11926 from Invitrogen, pH 7.4
At the assay day cells are washed 3× with assay puffer, 20 μL buffer remaining in the wells after washing. 10 μL Ca6 kit (Cat. R8191 Molecular Devices) loading buffer in HBSS/HEPES is added to the cells and the plates are incubated with lid for 120 minutes at 37°/5% CO2. 10 μL of compound or controls in HBSS/HEPES buffer/5% DMSO from the intermediate dilution plate are carefully added to the wells. […] Finally 10 μL of the agonist AITC 50 μM dissolved in HBSS/HEPES buffer/0.05% DMSO (final concentration 10 μM) is added to the wells followed by an additional read on the FLIPRtetra device for 10 minutes. The area under the signal curve (AUC) after AITC addition is used for IC50/% inhibition calculations
Data Evaluation and Calculation:
Each assay microtiter plate contains wells with vehicle (1% DMSO) controls instead of compound as controls for AITC induced luminescence (100% CTL; high controls) and is wells with vehicle controls without AITC as controls for non-specific changes in luminescence (0% CTL; low controls).
The analysis of the data is performed by the calculation of the area under signal curve of the individual wells. Based on this values the % value for the measurement of each substance concentration is calculated (AUC(sample)−AUC(low))*100/(AUC(high)−AUC(low)) using MegaLab software (in house development). The IC50 values are calculated from the % control values using MegaLab software. Calculation: [y=(ad)/(1+(x/c)^b)+d], a=low value, d=high value; x=conc M; c=IC50 M; b=hill; y=% ctrl

[1] = Assay B: Microsomal clearance; assay type: in vitro ADME, human; conditions: pooled liver microsomes 1 mg/ml, test compound 1 μM, 37° C., NADPH; clearance as % of hepatic blood flow
Procedure: Assay B: Microsomal Clearance:
The metabolic degradation of the test compound is assayed at 37° C. with pooled liver microsomes. The final incubation volume of 100 μl per time point contains TRIS buffer pH 7.6 at RT (0.1 M), magnesium chloride (5 mM), microsomal protein (1 mg/ml) and the test compound at a final concentration of 1 μM.
Following a short preincubation period at 37° C., the reactions are initiated by addition of beta-nicotinamide adenine dinucleotide phosphate, reduced form (NADPH, 1 mM) and terminated by transferring an aliquot into solvent after different time points (0, 5, 15, 30, 60 min). Additionally, the NADPH-independent degradation is monitored in incubations without NADPH, terminated at the last time point. The [%] remaining test compound after NADPH independent incubation is reflected by the parameter c (control) (metabolic stability). The quenched incubations are pelleted by centrifugation (10000 g, 5 min).
An aliquot of the supernatant is assayed by LC-MS/MS for the amount of parent compound. The half-life (t½ INVITRO) is determined by the slope of the semilogarithmic plot of the concentration-time profile.
The intrinsic clearance (CL_[…]) is calculated by considering the amount of protein in the incubation: CL_[…] [μl/min/mg protein]=(Ln 2/(half-life [min]*protein content [mg/ml]))*1000 CL_[…]_INVIVO [ml/min/kg]=(CL_[…] [μL/min/mg protein]×MPPGL [mg protein/g liver]×liver factor [g/kg bodyweight])/1000 Qh [%]=CL [ml/min/kg]/hepatic blood flow [ml/min/kg])
(§1) Hepatocellularity, human: 120×10e6 cells/g liver
(§2) Liver factor, human: 25.7 g/kg bodyweight
(§3) Blood flow, human: 21 ml/(min×kg)

[2] = Assay C: Hepatocyte clearance; assay type: in vitro ADME, human; conditions: cryopreserved hepatocyte suspension, test compound 1 μM, up to 6 h; predicted clearance as % of hepatic blood flow
Procedure: Assay C: Hepatocyte Clearance
The metabolic degradation of the test compound is assayed in a hepatocyte suspension. Hepatocytes (cryopreserved) are incubated in Dulbecco's modified eagle medium (supplemented with 3.5 μg glucagon/500 mL, 2.5 mg insulin/500 mL and 3.75 mg/500 mL hydrocortison) containing 5% or 50% species serum.
The cells are incubated for six hours (incubator, orbital shaker) and samples (25 μl) are taken at 0, 0.5, 1, 2, 4 and 6 hours. Samples are transferred into acetonitrile and pelleted by centrifugation (5 min). The supernatant is transferred to a new 96-deepwell plate, evaporated under nitrogen and resuspended.
Decline of parent compound is analyzed by HPLC-MS/MS
CLint is calculated as follows CL_[…]=Dose/AUC=(CO/CD)/(AUD+clast/k)×1000/60. CO: initial concentration in the incubation [P M], CD: cell density of vital cells [10e6 cells/mL], AUD: area under the data [μM×h], clast: concentration of last data point [μM], k: slope of the regression line for parent decline [h−1].
The calculated in vitro hepatic intrinsic clearance can be scaled up to the intrinsic in vivo hepatic Clearance and used to predict hepatic in vivo blood clearance (CL) by the use of a liver model (well stirred model). CL_[…]_INVIVO [ml/min/kg]=(CL_[…] [μL/min/10e6 cells]×hepatocellularity [10e6 cells/g liver]×liver factor [g/kg bodyweight])/1000 CL [ml/min/kg]=CL_[…]_INVIVO [ml/min/kg]×hepatic blood flow [ml/min/kg]/(CL_[…]_INVIVO [ml/min/kg]+hepatic blood flow [ml/min/kg]) Qh [%]=CL [ml/min/kg]/hepatic blood flow [ml/min/kg])
as §1, §2, §3

T1 sequence (O75762 whole entry): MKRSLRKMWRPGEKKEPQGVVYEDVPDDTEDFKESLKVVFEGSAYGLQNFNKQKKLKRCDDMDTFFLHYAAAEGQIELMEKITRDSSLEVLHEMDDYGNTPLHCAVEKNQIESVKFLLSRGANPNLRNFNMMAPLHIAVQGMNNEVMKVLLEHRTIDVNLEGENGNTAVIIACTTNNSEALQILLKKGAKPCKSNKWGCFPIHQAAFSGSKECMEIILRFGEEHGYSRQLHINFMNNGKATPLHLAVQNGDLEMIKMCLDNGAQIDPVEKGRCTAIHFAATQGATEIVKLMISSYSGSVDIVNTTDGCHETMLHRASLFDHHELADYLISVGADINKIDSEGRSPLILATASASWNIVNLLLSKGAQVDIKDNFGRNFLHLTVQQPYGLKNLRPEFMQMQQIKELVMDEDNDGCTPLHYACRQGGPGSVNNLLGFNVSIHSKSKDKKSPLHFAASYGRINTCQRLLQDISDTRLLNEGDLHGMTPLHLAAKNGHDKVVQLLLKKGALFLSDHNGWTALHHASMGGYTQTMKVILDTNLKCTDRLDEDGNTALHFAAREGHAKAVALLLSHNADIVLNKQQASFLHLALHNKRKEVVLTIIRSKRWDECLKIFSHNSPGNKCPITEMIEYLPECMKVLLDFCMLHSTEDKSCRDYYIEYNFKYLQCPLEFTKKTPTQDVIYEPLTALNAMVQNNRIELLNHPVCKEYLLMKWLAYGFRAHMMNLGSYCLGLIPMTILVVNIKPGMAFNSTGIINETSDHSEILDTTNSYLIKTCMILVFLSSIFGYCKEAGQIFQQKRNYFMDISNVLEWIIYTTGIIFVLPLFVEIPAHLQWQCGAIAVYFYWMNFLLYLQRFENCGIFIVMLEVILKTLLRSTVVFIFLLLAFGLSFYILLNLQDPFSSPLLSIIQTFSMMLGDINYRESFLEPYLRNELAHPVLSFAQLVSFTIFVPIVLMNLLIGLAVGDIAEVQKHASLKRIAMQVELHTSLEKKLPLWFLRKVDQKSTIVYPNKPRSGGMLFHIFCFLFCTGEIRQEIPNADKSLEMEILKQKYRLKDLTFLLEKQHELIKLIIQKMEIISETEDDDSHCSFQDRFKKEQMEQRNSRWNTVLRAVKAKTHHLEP

Compound | IC50 (human TRPA1 ion channel) | human LM [% Qh] [1] | human Hepatocytes [% Qh] [2]
CN1C(=O)COc2ncn(Cc3nnn(C[C@H](O)c4cc5ccc(F)cc5s4)n3)c(=O)c21 [Example 2] | 15 nM | <23 % Qh | 16 % Qh
CN1C(=O)COc2ncn(Cc3nnn(C[C@H](O)c4cc5cc(Cl)c(F)cc5o4)n3)c(=O)c21 [Example 11] | 81 nM | 34 % Qh | 29 % Qh
CN1C(=O)COc2ncn(Cc3nnn(C[C@H](O)c4cc5cc(F)c(F)cc5o4)n3)c(=O)c21 [Example 7] | 60 nM | <23 % Qh | 21 % Qh
CN1C(=O)COc2ncn(Cc3nnn(C[C@H](O)c4cc(Cl)c(Cl)s4)n3)c(=O)c21 [Example 5] | 39 nM | <23 % Qh | 29 % Qh
CN1C(=O)COc2ncn(Cc3nnn(C[C@H](O)c4cc5cc(F)ccc5o4)n3)c(=O)c21 [Example 6] | 45 nM | <23 % Qh | 13 % Qh
Cc1ccc([C@@H](O)Cn2nnc(Cn3cnc4c(c3=O)N(C)C(=O)CO4)n2)cc1 [Example 9] | 73 nM | <23 % Qh | 5 % Qh
CN1C(=O)COc2ncn(Cc3nnn(C[C@H](O)c4ccc(Br)cc4)n3)c(=O)c21 [Example 8] | 62 nM | <23 % Qh | 11 % Qh
CN1C(=O)COc2ncn(Cc3nnn(C[C@H](O)c4cc5ccccc5s4)n3)c(=O)c21 [Example 3] | 23 nM | <23 % Qh | 18 % Qh
CN1C(=O)COc2ncn(Cc3nnn(C[C@H](O)c4ccc(Cl)s4)n3)c(=O)c21 [Example 10] | 80 nM | <23 % Qh | <4 % Qh
CN1C(=O)COc2ncn(Cc3nnn(C[C@H](O)c4ccc(Cl)cc4)n3)c(=O)c21 [Example 1, 3-({2-[(2R)-2-(4-chlorophenyl)-2-hydroxyethyl]-2H-1,2,3,4-tetrazol-5-yl}methyl)-5-methyl-3H,4H,5H,6H,7H-pyrimido[4,5-b][1,4]oxazine-4,6-dione] | 53 nM | <23 % Qh | 7 % Qh
CN1C(=O)COc2ncn(Cc3nnn(C[C@H](O)c4cc5cc(Cl)ccc5o4)n3)c(=O)c21 [Example 4] | 32 nM | <23 % Qh | 31 % Qh

Results, then the molecule that gave them:

IC50 (human TRPA1 ion channel) | human LM [% Qh] [1] | human Hepatocytes [% Qh] [2] | Compound
155 nM | <23 % Qh | 6 % Qh | CN1C(=O)CSc2ncn(Cc3nnn(C[C@H](O)c4ccc(Cl)cc4)n3)c(=O)c21 [Example 21]
237 nM | <23 % Qh | <4 % Qh | CN1C(=O)COc2ncn(Cc3nnn(C[C@H](O)c4ccc(C#N)s4)n3)c(=O)c21 [Example 16]
191 nM | <23 % Qh | 5 % Qh | CN1C(=O)COc2ncn(Cc3nnn(C[C@H](O)c4ccc5c(c4)OCO5)n3)c(=O)c21 [Example 14]
153 nM | <23 % Qh | 8 % Qh | CN1C(=O)COc2ncn(Cc3nnn(C[C@H](O)c4cc5cccc(F)c5o4)n3)c(=O)c21 [Example 18]
100 nM | <23 % Qh | 16 % Qh | C[C@@H]1Oc2ncn(Cc3nnn(C[C@H](O)c4ccc(Cl)cc4)n3)c(=O)c2N(C)C1=O [Example 24]
140 nM | <23 % Qh | <4 % Qh | CN1C(=O)CCc2ncn(Cc3nnn(C[C@H](O)c4ccc(Cl)cc4)n3)c(=O)c21 [Example 20]
52 nM | 25 % Qh | 36 % Qh | C[C@H]1Oc2ncn(Cc3nnn(C[C@H](O)c4ccc(Cl)cc4)n3)c(=O)c2N(C)C1=O [Example 23]
74 nM | 35 % Qh | 12 % Qh | CN1C(=O)C(F)(F)Oc2ncn(Cc3nnn(C[C@H](O)c4ccc(Cl)cc4)n3)c(=O)c21 [Example 22]
145 nM | <23 % Qh | 10 % Qh | CN1C(=O)COc2ncn(Cc3nnn(C[C@H](O)c4cc5ccc(F)cc5o4)n3)c(=O)c21 [Example 13]
248 nM | <23 % Qh | 13 % Qh | COc1ccc([C@@H](O)Cn2nnc(Cn3cnc4c(c3=O)N(C)C(=O)CO4)n2)cc1 [Example 17]
214 nM | <23 % Qh | 19 % Qh | CN1C(=O)COc2ncn(Cc3nnn(C[C@H](O)c4ccc5cc(C#N)oc5c4)n3)c(=O)c21 [Example 19]
115 nM | <23 % Qh | 8 % Qh | CN1C(=O)COc2ncn(Cc3nnn(C[C@H](O)c4cc5ccccc5o4)n3)c(=O)c21 [Example 12]
227 nM | 26 % Qh | 29 % Qh | CN1C(=O)COc2ncn(Cc3nnn(C[C@H](O)c4cc5cc(F)c(Cl)cc5o4)n3)c(=O)c21 [Example 15]

Reference: US11891403B2, “Tetrazole derivatives as TRPA1 inhibitors” (Boehringer Ingelheim International GmbH, priority 2020, dated 2024)
